Results on ten molecules are retold here after PubChem BioAssay (NCI).

SMILES strings stand for the structures.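 Briefly, cells in 96-well plates were exposed to five compound concentrations for 48 h, and endpoints were estimated by linear interpolation. GI50 is the concentration that inhibits growth by half. TGI: concentration producing complete growth inhibition.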

Common to all, as to test: NCI tumour cell line growth inhibition, 48 h
Assay [1] deals with SNB-75 CNS.
Assay [2] relates to MDA-MB-231 breast.
Assay [3] concerns HCT-116 colon.
For assay [4], the system named is EKVX NSCLC.
For assay [5], the system named is BT-549 breast.
Assay [6] relates to OVCAR-3 ovarian.
Assay [7] relates to HCC-2998 colon.
For assay [8], the system named is OVCAR-8 ovarian.

As to `COc1ccc(NC(=O)COCCOCCNC[C@@H]2C(=O)O[C@H]3[C@H]2CC/C(COC(=O)OC/C2=C/CC[C@@]4(C)O[C@H]4[C@H]4OC(=O)[C@@H](CN(C)C)[C@@H]4CC2)=C\CC[C@@]2(C)O[C@@H]32)c(O)c1C(N)=O`, the GI50 was 10.2 µM in assay [1]; 5.03 µM in assay [2]; 3.5 µM in assay [3]; 5.76 µM in assay [4]; 6.19 µM in assay [5]; 1.47 µM in assay [6]. Moreover, the GI50 is 10.2 µM in assay [7] and 3.56 µM in assay [8]. For the same molecule, the TGI was over 50 µM in assay [1]; 11.3 µM in assay [2]; 9.86 µM in assay [3]; 14.7 µM in assay [4]; 12.9 µM in assay [5]; 5.26 µM in assay [6]. Also, the TGI in assay [7] worked out at 19.1 µM; in assay [8] it was 12 µM.

Regarding `COc1ccc(/C(=N\O)c2cc(C)c(OC)c(C)c2)cc1O`, the GI50 in assay [2] is 0.0438 µM; in assay [3] it was under 0.01 µM; in assay [4], 0.0613 µM; in assay [5], 0.0261 µM; in assay [6], under 0.01 µM; in assay [7], 0.0279 µM. The GI50 in assay [8] is 0.0352 µM. The TGI in assay [2], in assay [3], in assay [4], in assay [5], in assay [6] and in assay [7] was over 100 µM throughout. This molecule returned a TGI in assay [8] of 71.6 µM.

Take `COc1cc(-n2cc(-c3ccc(Cl)cc3)nc2SCc2cccc(C#N)c2)cc(OC)c1OC`: the GI50 was 0.433 µM in assay [1]; 73.5 µM in assay [2]; 37.3 µM in assay [3]; 18.2 µM in assay [4]; 50.3 µM in assay [6]; over 100 µM in assay [7]. Moreover, the TGI in assay [1] is 9.77 µM; in assay [2], over 100 µM; in assay [3] it was over 100 µM; in assay [4] it was 56.9 µM; in assay [6] it was over 100 µM; in assay [7] it was over 100 µM.

For `Cc1cc(Cc2cc(C)cc(C(C)(C)C)c2O)c(O)c(Cc2cc(C)cc(C(C)(C)C)c2O)c1`, the TGI in assay [1] was 14.2 µM; in assay [2], 4.25 µM; in assay [3], 5.44 µM; in assay [4], 9 µM; in assay [5], 10.6 µM; in assay [6] it was 10.4 µM. The molecule further had a TGI in assay [8] of 15.1 µM.

As to `CCN1Cc2c(ccc(F)c2C#N)O[C@@H](C)CNC(=O)c2c(N)nn3ccc1nc23`, the GI50 in assay [1] was 0.465 µM; in assay [2], 1.32 µM; in assay [3] it was 1.25 µM; in assay [4], 5.03 µM; in assay [5], 5.98 µM; in assay [6], 3.37 µM. Besides, the GI50 in assay [7] is 5.57 µM; in assay [8], 4.33 µM. The TGI in assay [1] came out at 3.82 µM; in assay [2], 4.21 µM; in assay [3], 11.5 µM; in assay [4], 31.4 µM; in assay [5], 18.5 µM; in assay [6], 18.1 µM. For the same molecule, the TGI in assay [7] is 20.7 µM; in assay [8], over 100 µM.

Take `C=C1C(=O)O[C@H]2[C@H]1CCC(/C=N/c1ncc(Br)cc1N)=C\CC[C@@]1(C)O[C@@H]21`: the GI50 was 3.38 µM in assay [1]; 1.38 µM in assay [2]; 1.06 µM in assay [3]; 2.36 µM in assay [4]; 1.82 µM in assay [5]; 1.05 µM in assay [6]. For the same molecule, the GI50 is 3.56 µM in assay [7] and 2.98 µM in assay [8]. Besides, the TGI in assay [1] came to 18 µM; in assay [2], 3.46 µM; in assay [3] it was 2.46 µM; in assay [4], 11.8 µM; in assay [5], 6.49 µM; in assay [6], 2.29 µM. Also, the figures for the TGI in assay [7] and in assay [8] were 12.9 µM and 10.9 µM, respectively.

In the case of `CC(NCCC(=O)N(CCC(=O)N(CCC(=O)N(CCC(=O)N(CCC(=O)N(CCC(=O)N(CCC(=O)N(CCC(=O)N(CCC(=O)N(CCC(=O)O)[C@H](C)c1ccccc1)[C@H](C)c1ccccc1)[C@H](C)c1ccccc1)[C@H](C)c1ccccc1)[C@H](C)c1ccccc1)[C@H](C)c1ccccc1)[C@H](C)c1ccccc1)[C@H](C)c1ccccc1)[C@H](C)c1ccccc1)c1ccccc1` (some centres not stated), the GI50 in assay [1] is 2.2 µM; in assay [2], 1.44 µM; in assay [3] it was 1.95 µM; in assay [4], 3.73 µM; in assay [6], 2.04 µM; in assay [7], 1.38 µM. In assay [8], the GI50 was 3.45 µM. For the same molecule, the TGI in assay [1] is 41.1 µM; in assay [2], 4.39 µM; in assay [3], over 19.9 µM; in assay [4], over 75 µM; in assay [6] it was 19.1 µM; in assay [7] it was 3.11 µM. This molecule also yielded a TGI in assay [8] of over 47.1 µM.

For the molecule `O=C(O)c1cc(-c2ccncc2)nc2ccccc12`, the TGI in assay [2], in assay [3], in assay [4], in assay [5], in assay [6] and in assay [7] was over 100 µM throughout. In assay [8], this molecule had a TGI of over 100 µM.

With `Oc1ccccc1C=Nc1nc(SCc2ccccc2)nc2[nH]ncc12`, the GI50 is over 100 µM in assay [1]; 29.2 µM in assay [2]; over 100 µM in assay [4]; over 100 µM in assay [5]; 64.5 µM in assay [6]; 47.9 µM in assay [7]. Moreover, the GI50 in assay [8] was 46.8 µM. The TGI in assay [1], in assay [2], in assay [4], in assay [5], in assay [6] and in assay [7] was over 100 µM in each case. This molecule displayed a TGI in assay [8] of over 100 µM.

In the case of `FC(F)(F)c1ccc(C#Cc2ccccc2C#Cc2ccccc2)cc1`, the GI50 is over 100 µM in assay [1]; 26.5 µM in assay [2]; 21.6 µM in assay [3]; 33.6 µM in assay [4]; over 100 µM in assay [5]; 29.5 µM in assay [6]. Further, the results for the GI50 in assay [7] and in assay [8] were 32.7 µM and 59.2 µM, respectively. In addition, the TGI was over 100 µM in assay [1]; 62.7 µM in assay [2]; over 100 µM in assay [3]; over 100 µM in assay [4]; over 100 µM in assay [5]; 91.9 µM in assay [6]. Moreover, the TGI in assay [7] was 53.1 µM; in assay [8] it was over 100 µM.
